Structures are written as SMILES. Activity calls are given as the source filed them. The rule behind the calls is not given here.

The test relates to Trypanosoma brucei growth inhibition, luminescence. Put plainly: antitrypanosomal activity against T. brucei – luminescence (AID 1159562).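 Note: parasites grew with compound for 24 h before the luminescence read.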
Turning to `O=C1CCCCCC1(Cc1cnc[nH]1)c1ccc(Cl)cc1Cl` (configuration not stated), the IC50 is > 40000 nM (inactive).

As for `O=C(CSc1nnc2ccc(-c3ccc(F)cc3)nn12)N1CCCCC1`, the IC50 was 500 nM.

`CCn1c(NC(=O)Cc2ccc(F)cc2)nc2ccccc21`: the half-maximal inhibitory concentration (IC50) was 5000 nM.

Regarding `CN1CCCN(C(=O)c2ccc(N3CCCC3)cc2Cl)CC1`, the IC50 is > 40000 nM (inactive).

As to `NC(=O)c1ccsc1NC(=O)c1ccc([N+](=O)[O-])s1`, the half-inhibitory concentration (IC50) is 1600 nM.

`O=C(CSc1nnc(-c2ccc3c(c2)OCO3)o1)N(Cc1ccco1)CC(F)(F)F`: the IC50 was > 40000 nM (inactive).

On to `C[C@@H](Oc1cc(-n2cnc3cc(N)ccc32)sc1C(N)=O)c1ccccc1Cl`, for which the 50% inhibitory concentration (IC50) was 790 nM.

Regarding `CC(C)COC(=O)Nc1ccc(N2CCC(CNS(=O)(=O)c3ccccc3)CC2)c(F)c1`, the IC50 is 20000 nM.

Take `CNc1cc(Cn2c(C(=O)c3cc(C)cc(Cl)c3)c(C(C)C)c(=O)[nH]c2=O)ccn1`: the concentration for half-maximal inhibition (IC50) was 25000 nM.

`CC(C)c1cc(Nc2cc(Cc3ccccc3)nc(NC3CCC(O)CC3)n2)n[nH]1` (configuration not stated): the half-maximal inhibitory concentration (IC50) was 100 nM.

On to `Cc1[nH]n2c(=O)c3c(nc2c1-c1ccc(Br)cc1)CCCC3`, for which the IC50 is 790 nM.

Turning to `Nc1nc(-c2ccccn2)nc(-n2nc(-c3ccccc3)cc2N)n1`, the IC50 is 3200 nM.

Take `O=C(Cc1ccc2c(c1)CCC2)Nc1n[nH]c(-c2ccccn2)n1`: the IC50 was > 40000 nM (inactive).

As to `O=C1COC(c2ccccc2)(c2ccccc2)CN1C1CCN(Cc2ccc(-n3ccnc3)cc2)CC1`, the concentration for half-maximal inhibition (IC50) is 1000 nM.

Consider `O=C(Nc1ncc([N+](=O)[O-])s1)C1CC1`, for which the half-inhibitory concentration (IC50) was 40000 nM.

On to `Cc1nn(C2CCS(=O)(=O)C2)c(C)c1CN(C)C(=O)C=Cc1sc2ccccc2c1Cl` (configuration not stated), for which the IC50 is 25000 nM.

Take `CCc1ccccc1[C@@H](C)NC(=O)c1cnc2c(cnn2CC)c1NC1CCN(C(N)=O)CC1`: the IC50 is 500 nM.

As to `COc1ccc(OC)c(S(=O)(=O)N(Cc2c(F)cccc2F)[C@@H]2CCN(C#N)C2)c1`, the IC50 was 790 nM.

For the compound `COc1ccc2ncc(Cl)c(CCN3CC[C@@H](NCc4cc5c(cn4)OCS5)[C@H](O)C3)c2n1`, the 50% inhibitory concentration (IC50) is 400 nM.

Regarding `CC1CCCN(S(=O)(=O)c2ccc(C(=O)Nc3nc(-c4ccccn4)cs3)cc2)C1` (configuration not stated), the half-inhibitory concentration (IC50) is 400 nM.

`Cc1cc(Nc2cc(C3CC3)[nH]n2)nc(N2CCCC2)n1`: the half-maximal inhibitory concentration (IC50) was 63 nM.

For the compound `N#Cc1ccc(C(=O)Nc2cccc(-c3cccc(CN4CCC(O)CC4)c3)c2)cc1`, the IC50 was 790 nM.

Consider `CN1C(=O)c2ccccc2Sc2ccc(NC(=O)NCc3ccco3)cc21`, for which the concentration for half-maximal inhibition (IC50) was 500 nM.

`COc1cccc(Nc2cc(C)nc(-c3ccccn3)n2)c1`: the IC50 was > 40000 nM (inactive).

As for `Cc1ccc(NC(=O)C(C)n2nc([N+](=O)[O-])c(Br)c2C)cc1Cl` (configuration not stated), the IC50 was > 40000 nM (inactive).

Take `Cc1ccccc1NS(=O)(=O)c1ccc2[nH]cc(C(=O)NC3CCCC(C)C3C)c(=O)c2c1` (configuration not stated): the half-inhibitory concentration (IC50) is 630 nM.

For `COCc1cnc2c(c1SCc1c(F)cccc1Cl)c(=O)n(C)c(=O)n2C`, the IC50 is > 40000 nM (inactive).

Take `CCN(C)Cc1ccc(N2CCC(NS(=O)(=O)c3ccc4c(c3)CCO4)CC2)nc1`: the IC50 was 40000 nM.

Take `CCC(=O)Nc1ccccc1C(=O)Nc1ccccn1`: the IC50 is 400 nM.

`Cc1c(Nc2cc(C3CC3)[nH]n2)ccc(C#N)c1Cl`: the IC50 was 630 nM.

With `COc1ccc(C(C)(C)C)cc1S(=O)(=O)n1ccnc1`, the IC50 was > 40000 nM (inactive).

`NC(=O)c1ccc(-c2cccc(OCCN3CCN(C4CCCCC4)CC3)c2)cc1`: the IC50 is 16000 nM.

For `Cc1[nH]c2ccccc2c(=O)c1Cc1c(C)[nH]c2ccccc2c1=O`, the IC50 is > 40000 nM (inactive).

Regarding `O=C(Nc1ccc(Br)c(Cl)c1)Nc1ccc2c(c1)OCO2`, the half-inhibitory concentration (IC50) is 13000 nM.

In the case of `O=c1cc(NCCCNCc2cc(C(F)(F)F)cs2)[nH]c2ccccc12`, the concentration for half-maximal inhibition (IC50) was 400 nM.

For `O=C(CN1CCN(c2ccccn2)CC1)Nc1cc(S(=O)(=O)N2CCCCCC2)ccc1Cl`, the concentration for half-maximal inhibition (IC50) is 25000 nM.

As for `COc1ccc2c(Cl)c(C(=O)N3CCC3)sc2c1Cl`, the IC50 was > 40000 nM (inactive).

`COc1ccc2nc(N(Cc3cccnc3)C(=O)C3CCC3)sc2c1`: the IC50 is 40000 nM.

In the case of `CC(Cn1ccnc1)NC(=O)C1CC1c1cccc(Cl)c1Cl` (configuration not stated), the IC50 is > 40000 nM (inactive).

As to `CC(=O)Nc1ccc(-c2ccnc(Nc3cccc(C#N)c3)n2)cc1`, the IC50 is 790 nM.

In the case of `O=c1ccn(-c2ccc([N+](=O)[O-])cc2Cl)c2ccc(F)cc12`, the IC50 is > 40000 nM (inactive).

For the compound `COc1ccc(C2CC(c3ccccc3Cl)=NN2C(=O)CNC(=O)C2CCC2)cc1` (configuration not stated), the IC50 was 500 nM.

As to `CCCN1CCN(Cc2ccc(S(=O)(=O)Nc3cccc(C)c3)cc2)CC1`, the IC50 was > 40000 nM (inactive).

As to `CNc1nc(C)nc(N2CCc3cc(C(=O)NCc4ccc(-c5ccn[nH]5)cc4Cl)ccc32)n1`, the half-maximal inhibitory concentration (IC50) was 10000 nM.

As for `COc1cccc(C(=O)[C@H]2C[C@@H]2CN(Cc2cccnc2)Cc2cccnc2)c1`, the IC50 was > 40000 nM (inactive).

`O=C(NCCc1nc(-c2ccc(F)c(F)c2)n[nH]1)C1CCCCC1`: the IC50 was 1000 nM.

For the compound `Cc1cc(NC(=O)CC2CCCCC2)n(-c2nc3c(c(=O)[nH]2)CCC3)n1`, the IC50 was 160 nM.

`Cc1ccc(Nc2nc(N)nc(CNC(c3nc4ccccc4[nH]3)C(C)C)n2)cc1` (configuration not stated): the half-inhibitory concentration (IC50) is 5000 nM.

`O=c1cc(NCCCNCc2c[nH]c3ccc(Br)cc23)[nH]c2ccccc12`: the IC50 is 790 nM.

As to `CC(C(=O)Nc1ccc(Br)cc1)N1CCN(c2ccc([N+](=O)[O-])cc2)CC1` (configuration not stated), the IC50 was > 40000 nM (inactive).

Regarding `Cc1cc2nc(N3CC[C@H]3C(N)=O)nc(Nc3cc(C4CC4)[nH]n3)c2s1`, the half-maximal inhibitory concentration (IC50) was 130 nM.

Turning to `O=C(Nc1nc(-c2ccccn2)cs1)c1ccc(S(=O)(=O)N2CCCCC2)cc1`, the IC50 is 630 nM.

Regarding `CN(CCOc1ccc(Cl)cc1)Cc1nc(N)nc(N(C)C)n1`, the IC50 was 16000 nM.

On to `CCN(CC)c1ncc(C(=O)c2ccc([N+](=O)[O-])o2)s1`, for which the IC50 was 400 nM.

Regarding `CNc1nc(C)nc(N2CCc3cc(C(=O)NCc4ccc(-c5nccn5C)cc4Cl)ccc32)n1`, the IC50 is 20000 nM.

With `CC(C)(C)Nc1nc(Nc2ccc3c(c2)CS(=O)(=O)C3)nc2[nH]ccc12`, the IC50 is 5000 nM.

Regarding `O=C(NCC(c1cccs1)N1CCOCC1)c1ccc([N+](=O)[O-])o1` (configuration not stated), the IC50 is 320 nM.

As to `CCCCn1c(=O)c2c(N)onc2n(CCCC)c1=O`, the half-maximal inhibitory concentration (IC50) was 500 nM.

For the compound `O=C(NCCc1ccccn1)C(c1cn[nH]c1)N1CCN(c2ccc(Cl)c(Cl)c2)CC1` (configuration not stated), the IC50 was > 40000 nM (inactive).

`COc1ccc(C(=O)[C@H]2C[C@@H]2CN(Cc2ccccn2)Cc2ccccn2)cc1`: the concentration for half-maximal inhibition (IC50) was 16000 nM.

Regarding `COc1ccc2ncc(=O)n(CCN3CCOC(CNCc4ccc(C(F)(F)F)cc4F)C3)c2n1` (configuration not stated), the 50% inhibitory concentration (IC50) is 2500 nM.

Turning to `CN(C(=O)Nc1ccc2c(c1)CCN(C1CCC1)CC2)c1ccc(C#N)cc1`, the half-inhibitory concentration (IC50) is 630 nM.

On to `Nc1nonc1-c1nc2cncc(C(=O)N3CC[C@H](N)C3)c2n1CC1CC1`, for which the 50% inhibitory concentration (IC50) was 790 nM.

With `CC(C)(C)CC(=O)NCCc1csc(-c2ccc(F)cc2)n1`, the concentration for half-maximal inhibition (IC50) was 500 nM.

On to `Cc1ccc2nc(N(Cc3cccnc3)C(=O)CCc3ccccc3)sc2c1`, for which the IC50 is 20000 nM.

Consider `Cc1cc(Br)sc1CNCCCNc1cc(=O)c2ccccc2[nH]1`, for which the IC50 was 100 nM.

In the case of `COc1ccc(-c2cnc(C)o2)cc1S(=O)(=O)Nc1ccc(C)cc1C`, the IC50 was 32000 nM.

For `O=C1NCc2cccc(Nc3nc(NC4CCC(O)CC4)ncc3Br)c21` (configuration not stated), the half-inhibitory concentration (IC50) is 130 nM.

On to `Cc1cc2ncn(-c3ccc([N+](=O)[O-])cc3C#N)c2cc1C`, for which the IC50 is > 40000 nM (inactive).

For `CC1=C(C(=O)Nc2ccc(Cl)cc2)C(c2ccncc2)n2ncc(C(=O)Nc3ccccc3)c2N1` (configuration not stated), the IC50 was > 40000 nM (inactive).

With `CNc1cc(C)nc(C2CN(C(=O)c3n[nH]c4ccccc34)CCO2)c1` (configuration not stated), the IC50 was > 40000 nM (inactive).

Consider `COc1ccccc1C1CC(c2ccc(NS(C)(=O)=O)cc2)=NN1C(=O)c1cccs1` (configuration not stated), for which the IC50 was 20000 nM.

For `CN(C)CCN(C)Cc1ccc(F)cc1NS(=O)(=O)c1ccc(Cl)c(Cl)c1`, the half-inhibitory concentration (IC50) is 5000 nM.

For the compound `Cc1[nH]nc(-c2nc3ccccc3[nH]2)c1C(=O)NC1CCCNC1` (configuration not stated), the concentration for half-maximal inhibition (IC50) is 500 nM.

Take `CC(C)(C)c1csc(NC(=O)c2ccc([N+](=O)[O-])s2)n1`: the IC50 is 1600 nM.

With `O=[N+]([O-])c1ccc(-c2nnn(-c3ccc(Cl)cc3)n2)o1`, the half-maximal inhibitory concentration (IC50) was 1000 nM.

On to `c1ccc2sc(Nc3nc4ncccc4[nH]3)nc2c1`, for which the concentration for half-maximal inhibition (IC50) is 1600 nM.

Turning to `COCc1cc(Nc2ccc(Cl)cc2)nc(-c2ccccn2)n1`, the IC50 was > 40000 nM (inactive).

In the case of `O=c1[nH]c(NCCCNCc2cc(Br)cc(Br)c2)nc2ccsc12`, the half-inhibitory concentration (IC50) was 100 nM.

Turning to `CN(Cc1ccc(F)cc1)c1ccc(OCC(=O)N2CCCCC2c2cccnc2)nn1` (configuration not stated), the IC50 is > 40000 nM (inactive).

Consider `CC(=O)NCCNc1cc(-c2ccnc(Nc3cccc(Cl)c3)n2)ccn1`, for which the half-maximal inhibitory concentration (IC50) is 200 nM.

On to `COc1ccc(S(=O)(=O)NC(C)C)cc1Nc1ncc(-c2cccc(F)c2)cn1`, for which the IC50 is > 40000 nM (inactive).

For `NS(=O)(=O)c1ccc(Nc2nccc(-c3cnn4ncccc34)n2)cc1`, the IC50 is 160 nM.

Turning to `Cc1nc2c(-c3n[nH]c(-c4ccccc4N)n3)cccn2c1C`, the IC50 is 2500 nM.

As for `COc1ccc(NC(=O)c2ccc(NC(=O)CN(c3ccccc3C)S(C)(=O)=O)cc2)cc1`, the concentration for half-maximal inhibition (IC50) is 790 nM.

On to `CCOc1ccc(Nc2ccc(S(=O)(=O)N3CCN(C)CC3)cc2[N+](=O)[O-])cc1OCC`, for which the IC50 was 32000 nM.

As to `CCC(=O)Nc1ccc(-c2nc3ccc(Cl)cc3[nH]2)cc1`, the IC50 was > 40000 nM (inactive).

For `COc1ccc(Nc2nc(NC3CCC(O)CC3)ncc2Br)c(C(N)=O)c1` (configuration not stated), the IC50 was 250 nM.

In the case of `COc1ccc(NS(=O)(=O)c2cc(-c3cc(C)[nH]n3)ccc2C)cc1OC`, the IC50 was 630 nM.

In the case of `Cc1cc(C)c(C#N)c(SCC(=O)c2ccc3c(c2)OCO3)n1`, the half-maximal inhibitory concentration (IC50) was 16000 nM.

In the case of `COc1ccc(S(=O)(=O)Nc2ccc(CN3CCN(C(=O)c4cccc(C#N)c4)CC3)cc2)cc1`, the IC50 is 630 nM.

Regarding `CC(c1ccccn1)N(C)Cc1nc2ccccc2n1C(C)C` (configuration not stated), the IC50 is 10000 nM.

The record behind these values is PubChem BioAssay AID1159562 (GlaxoSmithKline (GSK), 2015).
